# Patent US9139532B2, “Pyrazolyl guanidine F1F0-atpase inhibitors and therapeutic uses thereof” (Lycera Corporation, priority 2010, dated 2015)
# Read-outs that look alike come from different tables or passages of the source.
# Columns and labels:
# F1F0-ATPase = biological target: T1, F1F0-ATPase (Bos taurus, UniProt P13621); assay: Inhibition of F1F0-ATPase activity in synthesizing ATP; type: biochemical; conditions: inhibition of ATP synthesis by F1F0-ATPase; read-out: ATP Syn IC50
# T1 construct: from tissue
# Ramos cells = assay: Cytotoxicity in Ramos cells; type: cell-based; conditions: cytotoxicity in Ramos cells, read-out: Ramos Cell EC50
IC50 (F1F0-ATPase) [µM],SMILES,EC50 (Ramos cells; Homo sapiens) [µM],EC50 (Ramos cells) [µM]
< 10,O=C(N=C(Nc1cc(F)cc(Cl)c1)Nc1cc(-c2ccc(Cl)cc2)n[nH]1)c1ccc(Cl)c(F)c1 [Compound A-149],< 10,
< 10,Cc1ccc(C(=O)/N=C(\Nc2cc(C(F)(F)F)[nH]n2)NC2CCCC2)cc1 [Compound A-547],,< 10
< 10,COc1cccc(C(=O)N=C(Nc2cc(-c3ccc(F)cc3)n[nH]2)NC(C)(C)C)c1 [Compound A-540],< 10,
< 10,Cc1csc(CN/C(=N/C(=O)c2ccc(F)cc2)Nc2cc(C(F)(F)F)[nH]n2)n1 [Compound A-416],,> 10
< 10,O=C(/N=C(/Nc1cc(F)cc(Cl)c1)Nc1cc(C(F)F)[nH]n1)c1ccc(C(F)(F)F)cc1 [Compound A-60],< 10,
< 10,CC1(CNC(=NC(=O)c2ccc(Cl)c(F)c2)Nc2cc(-c3ccc(F)cc3)n[nH]2)CCCO1 (stereo not drawn) [Compound A-210],< 10,
< 10,Cc1ccc(-c2cc(N/C(=N\C(=O)c3ccc(F)c(F)c3)Nc3cc(F)cc(Cl)c3)[nH]n2)cc1 [Compound A-428],,> 10
< 10,O=C(N=C(NCc1ccc(F)cc1Cl)Nc1cc(-c2ccc(F)cc2)n[nH]1)c1ccc(F)cc1 [Compound A-460],< 10,
< 10,O=C(/N=C(/NCC(F)(F)F)Nc1cc(C(F)(F)F)[nH]n1)c1ccc(Cl)cc1 [Compound A-5],< 10,
< 10,O=C(/N=C(\Nc1cc(C(F)(F)F)[nH]n1)NC1(CO)CCCC1)c1ccc(F)cc1 [Compound A-415],,> 10
< 10,COc1cccc(CNC(=NC(=O)c2ccc(Cl)cc2)Nc2cc(-c3ccc(F)cc3)n[nH]2)c1 [Compound A-400],< 10,

SMILES,IC50 (F1F0-ATPase) [µM],EC50 (Ramos cells; Homo sapiens) [µM],EC50 (Ramos cells) [µM]
CCC(C)N/C(=N/C(=O)c1ccc(Cl)cc1)Nc1cc(-c2cc(F)cc(F)c2)n[nH]1 (stereo not drawn) [Compound A-234],< 10,,< 10
